Results reported in patent US7368430B2, “Selective inhibitors of nuclear factor-κB activation and uses thereof” (Research Development Foundation, priority 2003, dated 2008).
Where a SMILES comes first, the peptide text is derived from it.

Experiments:
[1] = system: KBM-5 cells; assay: Cytotoxicity assay (MTT assay); assay type: cell-based; conditions: 100 μM peptide; for effect on TNF-induced cytotoxicity (MTT): KBM-5 cells, TNF 72 h (FIG. 7A)
Method: Five thousand KBM-5 cells were seeded in triplicate in 96-well plates. Cells were pretreated with 100 μM PTD-p65-P1, and then incubated with the indicated concentrations of TNF for 72 hour. Thereafter, cell viability was analyzed by MTT assay.
Five thousand cells were seeded in triplicate in 96-well plates. Cells were pretreated with 100 μM protein transduction domain-p65-P1 and then incubated with indicated concentrations of TNF or doxorubicin or cisplatin for 72 hr. Thereafter, cell viability was analyzed by the MTT method.
The cytotoxic effects of […] were determined by the MTT uptake method as described (Manna et al., 2000a). Briefly, 5000 cells were incubated with synthetic peptides for 1 hour in triplicate in 96-well plates, and then treated with various concentration of TNF for 72 hours at 37° C. Thereafter, MTT solution was added to each well. After a 2-hr incubation at 37° C., extraction buffer (20% SDS, 50% dimethylformamide) was added, the cells were incubated overnight at 37° C., and then the OD was measured at 570 nm using a 96-well multiscanner (Dynex Technologies, MRX Revelation; Chantilly, Va.).

[2] = target: T1, NF-κB (p50-p65) binding to DNA (Homo sapiens, UniProt Q04206); assay: EMSA of NF-κB binding to DNA, nuclear extracts of TNF-treated cells incubated with peptides in vitro; assay type: biochemical; conditions: nuclear extracts of TNF-treated KBM-5 cells incubated 30 min with peptides (FIG. 2A)
T1 construct: endogenous in cells; host or cells: KBM-5 cells, TNF-treated, nuclear extract
Method: Nuclear extracts were prepared from TNF-treated cells, incubated for 30 min with various concentrations of peptides, and then assayed for NF-κB activation by EMSA.
NF-κB activation was examined by electrophoretic mobility shift assays as described (Chaturvedi et al., 1994; Takada and Aggarwal). Briefly, nuclear extracts prepared from TNF-treated cells (1×10^6/ml) were incubated with ^32P-end-labeled 45-mer double-stranded NF-κB oligonucleotide (10 ug of protein with 16 fmol of DNA) from the human immunodeficiency virus long terminal repeat, 5′-[…] CAGGGAGGCGTGG-3′ (SEQ ID NO. 1, boldface indicates NF-κB binding sites) for 30 min at 37° C., and the DNA-protein complex formed was separated from free oligonucleotide on 6.6% native polyacrylamide gels. A double-stranded mutated oligonucleotide, 5′-[…]-3′(SEQ ID NO. 2) was used to examine the specificity of binding of NF-κB to the DNA. The specificity of binding was also examined by competition with unlabeled oligonucleotide.
The dose-dependent effect of protein transduction domain-p65-P1 and p65-P1 on p50-p65 binding to DNA was investigated. […] The protein transduction domain alone had no effect.

[3] = system: NF-κB; assay: EMSA of NF-κB activation in KBM-5 cells preincubated with peptides; assay type: cell-based; conditions: various concentrations of peptides 1 h, 0.1 nM TNF 30 min (FIG. 3C)
Method: NF-κB activation was examined by electrophoretic mobility shift assays as described (Chaturvedi et al., 1994; Takada and Aggarwal). Briefly, nuclear extracts prepared from TNF-treated cells (1×10^6/ml) were incubated with ^32P-end-labeled 45-mer double-stranded NF-κB oligonucleotide (10 ug of protein with 16 fmol of DNA) from the human immunodeficiency virus long terminal repeat, 5′-[…] CAGGGAGGCGTGG-3′ (SEQ ID NO. 1, boldface indicates NF-κB binding sites) for 30 min at 37° C., and the DNA-protein complex formed was separated from free oligonucleotide on 6.6% native polyacrylamide gels. […]
To determine the effects of peptide containing Ser 276 (PTD-p65-P1), KBM-5 cells was preincubated with the peptides for 1 h, and then treated with 0.1 nM TNF for the indicated times. Nuclear extracts were prepared, and NF-κB activation was analyzed by electrophoretic mobility shift assays (EMSA). […]
Lipopolysaccharide, IL-1, okadaic acid, PMA, H2O2, and cigarette smoke condensate are potent activators of NF-κB, but the mechanisms differ. […] Cells were preincubated with 150 μM protein transduction domain-p65-P1 for 1 h, treated with 0.1 nM TNF, 1 μg/ml LPS, 100 ng/ml IL-1, 500 nM okadaic acid, 10 ng/ml PMA, 500 μM H2O2, or 1 μg/ml cigarette smoke condensate and then analyzed for NF-κB activation by EMSA.

[4] = target: T2, IKK complex (Homo sapiens, UniProt O14920+O15111); assay: Cell-free phosphorylation of p65 peptides by immunoprecipitated IKK complex; assay type: biochemical; conditions: 10 μg of peptides as substrate (FIG. 5C)
T2 construct: Whole-cell extracts were prepared from TNF-treated cells and immunoprecipitated with antibody against IKK-α; endogenous in cells
Method: Whole-cell extracts were prepared from TNF-treated cells and immunoprecipitated with antibody against IKK-α. Thereafter immunocomplex kinase assay was performed in the presence of the peptides as a substrate.
To determine the total amounts of IKK-α and IKK-β in each sample, […] of the whole-cell protein was resolved on 7.5% SDS-PAGE, electrotransferred to a nitrocellulose membrane, and then blotted with either anti-IKK-α or anti-IKK-β antibodies. Cell-free phosphorylation of peptide by IKK was also determined using 10 μg of peptides as a substrate in the kinase reaction mixture described above, and then fractionated on 20% SDS-PAGE in 2×SDS electrophoresis buffer.
p65-P1 and p65-p6 have one or two serine residues respectively. Whether these serine residues can be phosphorylated by IKK was investigated. Whole-cell extracts from TNF-treated cells were immunoprecipitated with antibody against IKK and then immunocomplex kinase assay was performed using p65-peptides as substrates. After reaction, samples were fractionated on 20% SDS-PAGE with 2-fold electrophoresis buffer.

T1 sequence (Q04206 whole entry): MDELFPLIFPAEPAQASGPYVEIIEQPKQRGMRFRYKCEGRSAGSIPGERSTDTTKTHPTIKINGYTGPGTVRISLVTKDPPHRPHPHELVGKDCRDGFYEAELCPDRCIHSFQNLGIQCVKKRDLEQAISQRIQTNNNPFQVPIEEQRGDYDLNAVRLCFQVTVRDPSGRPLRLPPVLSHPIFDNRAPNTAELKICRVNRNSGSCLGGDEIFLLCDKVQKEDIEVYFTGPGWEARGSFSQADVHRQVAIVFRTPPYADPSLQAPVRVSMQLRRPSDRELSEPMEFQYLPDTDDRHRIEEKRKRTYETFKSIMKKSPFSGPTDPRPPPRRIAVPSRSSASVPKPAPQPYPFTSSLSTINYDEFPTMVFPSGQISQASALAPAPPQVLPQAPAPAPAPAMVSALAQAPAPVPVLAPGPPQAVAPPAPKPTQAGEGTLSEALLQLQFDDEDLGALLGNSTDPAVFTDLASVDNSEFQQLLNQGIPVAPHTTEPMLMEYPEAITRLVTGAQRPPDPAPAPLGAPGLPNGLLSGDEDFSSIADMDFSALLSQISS
T2 sequence (O15111 whole entry): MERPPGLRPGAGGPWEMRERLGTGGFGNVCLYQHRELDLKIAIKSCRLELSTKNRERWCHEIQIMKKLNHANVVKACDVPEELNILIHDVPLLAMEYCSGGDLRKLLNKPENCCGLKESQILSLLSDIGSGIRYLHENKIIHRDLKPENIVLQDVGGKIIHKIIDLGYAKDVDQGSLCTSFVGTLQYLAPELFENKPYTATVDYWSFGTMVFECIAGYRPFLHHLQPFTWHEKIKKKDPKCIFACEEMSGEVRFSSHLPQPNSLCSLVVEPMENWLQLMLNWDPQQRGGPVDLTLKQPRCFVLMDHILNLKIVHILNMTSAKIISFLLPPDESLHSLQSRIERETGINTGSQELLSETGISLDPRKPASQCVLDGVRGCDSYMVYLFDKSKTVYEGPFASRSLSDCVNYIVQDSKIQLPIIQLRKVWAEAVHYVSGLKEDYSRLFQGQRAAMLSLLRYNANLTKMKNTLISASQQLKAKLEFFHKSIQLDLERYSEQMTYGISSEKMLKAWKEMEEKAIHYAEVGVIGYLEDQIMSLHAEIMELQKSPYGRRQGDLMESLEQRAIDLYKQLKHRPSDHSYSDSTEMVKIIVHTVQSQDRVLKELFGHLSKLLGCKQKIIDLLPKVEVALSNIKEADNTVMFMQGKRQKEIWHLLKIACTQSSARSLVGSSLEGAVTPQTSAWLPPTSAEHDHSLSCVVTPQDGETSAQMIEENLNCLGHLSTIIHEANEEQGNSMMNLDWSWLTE
T2 sequence (O14920 whole entry): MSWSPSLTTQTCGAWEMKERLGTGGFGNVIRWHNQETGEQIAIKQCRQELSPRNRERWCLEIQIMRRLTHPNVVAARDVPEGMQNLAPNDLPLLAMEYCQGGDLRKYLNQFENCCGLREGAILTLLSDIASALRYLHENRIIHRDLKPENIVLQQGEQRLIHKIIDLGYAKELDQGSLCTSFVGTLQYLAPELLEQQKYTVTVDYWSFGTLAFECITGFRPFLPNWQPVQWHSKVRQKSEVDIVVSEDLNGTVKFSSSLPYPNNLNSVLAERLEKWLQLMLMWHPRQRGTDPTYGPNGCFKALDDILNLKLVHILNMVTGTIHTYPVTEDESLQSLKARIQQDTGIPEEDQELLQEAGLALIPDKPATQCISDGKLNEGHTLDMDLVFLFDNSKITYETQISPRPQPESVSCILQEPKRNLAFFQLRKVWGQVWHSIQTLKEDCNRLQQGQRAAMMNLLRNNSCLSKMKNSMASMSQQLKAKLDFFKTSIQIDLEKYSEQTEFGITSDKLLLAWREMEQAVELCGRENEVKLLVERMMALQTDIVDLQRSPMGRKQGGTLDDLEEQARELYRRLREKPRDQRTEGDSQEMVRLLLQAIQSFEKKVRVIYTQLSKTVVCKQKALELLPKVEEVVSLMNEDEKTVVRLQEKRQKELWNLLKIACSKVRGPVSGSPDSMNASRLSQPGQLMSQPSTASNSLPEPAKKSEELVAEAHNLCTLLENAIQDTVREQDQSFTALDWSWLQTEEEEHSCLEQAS
T2 sequence (Q9Y6K9 whole entry partner): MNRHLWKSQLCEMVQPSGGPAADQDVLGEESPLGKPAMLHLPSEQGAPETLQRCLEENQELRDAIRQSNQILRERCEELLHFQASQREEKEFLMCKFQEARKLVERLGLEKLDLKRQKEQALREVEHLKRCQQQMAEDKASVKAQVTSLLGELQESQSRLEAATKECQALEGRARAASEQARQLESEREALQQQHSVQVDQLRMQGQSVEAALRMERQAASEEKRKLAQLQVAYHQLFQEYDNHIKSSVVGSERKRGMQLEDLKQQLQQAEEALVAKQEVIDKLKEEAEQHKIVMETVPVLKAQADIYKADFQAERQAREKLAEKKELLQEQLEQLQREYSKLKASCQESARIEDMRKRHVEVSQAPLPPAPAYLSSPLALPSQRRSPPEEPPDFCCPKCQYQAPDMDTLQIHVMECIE

Row | Molecule | effect on TNF-induced cytotoxicity (MTT) [1] | inhibition of NF-κB binding to the DNA in vitro [2] | also measured
1 | CC[C@H](C)[C@H](NC(=O)[C@H](CCCCN)NC(=O)[C@@H](NC(=O)[C@H](CCC(N)=O)NC(=O)[C@H](CCCNC(=N)N)NC(=O)[C@@H](N)CC(=O)O)[C@@H](C)CC)C(=O)N[C@@H](Cc1c[nH]c2ccccc12)C(=O)N[C@@H](Cc1ccccc1)C(=O)N[C@@H](CCC(N)=O)C(=O)N[C@@H](CC(N)=O)C(=O)N[C@@H](CC(N)=O)C(=O)N[C@@H](CCCNC(=N)N)C(=O)N[C@@H](CCCNC(=N)N)C(=O)N[C@@H](CCSC)C(=O)N[C@@H](CCCCN)C(=O)N[C@@H](Cc1c[nH]c2ccccc12)C(=O)N[C@@H](CCCCN)C(=O)N[C@@H](CCCCN)C(=O)O [protein transduction domain, reference compound] (H-DRQIKIWFQNNRRMKWKK-OH) | had no effect |  | 
2 | p65-P5: Peptide in which three amino acid residues were deleted from the N-terminus (RPSDRELSE; CHAIN p65-P5, mutated peptide derived from the p65 subunit of NF-kB) |  | inactive | 
3 | p65-P7: Peptide in which Ser 529 was mutated (NGLLAGDEDFSS; CHAIN p65-P7, mutated peptide derived from the p65 subunit of NF-kB) |  | did not inhibit | 
4 | PTD-p65-P6: SEQ ID NO. 10; antennapedia protein transduction domain linked to amino acid 525-537 of the p65 subunit (DRQIKIWFQNNRRMKWKKNGLLSGDEDFSS; CHAIN PTD-p65-P6, cell permeable NF-kb inhibitor) |  |  | effect on TNF-induced NF-κB activation (EMSA, dose response) [3]: inhibited TNF-induced NF-κB activation in a dose dependent manner
5 | p65-P6: SEQ ID NO. 11; p65 peptide containing Ser 529 and 536, amino acid 525-537 of the p65 subunit (NGLLSGDEDFSS; CHAIN p65-P6, peptide derived from the p65 subunit of NF-kB) |  |  | effect on TNF-induced NF-κB activation (EMSA, dose response) [3]: Neither a protein transduction domain nor p65-P6 alone had any effect; phosphorylation of the peptide by IKK complex [4]: can phosphorylate
6 | CC(C)C[C@H](NC(=O)[C@H](CCC(=O)O)NC(=O)[C@H](CCCNC(=N)N)NC(=O)[C@H](CC(=O)O)NC(=O)[C@H](CO)NC(=O)[C@@H]1CCCN1C(=O)[C@H](CCCNC(=N)N)NC(=O)[C@H](CCCNC(=N)N)NC(=O)[C@H](CC(C)C)NC(=O)[C@@H](N)CCC(N)=O)C(=O)N[C@@H](CO)C(=O)N[C@@H](CCC(=O)O)C(=O)O [p65-P1, QLRRPSDRELSE] (H-QLRRPSDRELSE-OH) | had no effect |  | 
7 | p65-p8: Peptide in which Ser 536 was mutated (NGLLSGDEDFSA; CHAIN p65-P8, mutated peptide derived from the p65 subunit of NF-kB) |  | did not inhibit | 
8 | p65-P2: Peptide in which Ser 276 was mutated (QLRRPADRELSE; CHAIN p65-P2, mutated peptide derived from the p65 subunit of NF-kB) |  | did not inhibit | 
9 | CC[C@H](C)[C@H](NC(=O)[C@H](CCCCN)NC(=O)[C@@H](NC(=O)[C@H](CCC(N)=O)NC(=O)[C@H](CCCNC(=N)N)NC(=O)[C@@H](N)CC(=O)O)[C@@H](C)CC)C(=O)N[C@@H](Cc1c[nH]c2ccccc12)C(=O)N[C@@H](Cc1ccccc1)C(=O)N[C@@H](CCC(N)=O)C(=O)N[C@@H](CC(N)=O)C(=O)N[C@@H](CC(N)=O)C(=O)N[C@@H](CCCNC(=N)N)C(=O)N[C@@H](CCCNC(=N)N)C(=O)N[C@@H](CCSC)C(=O)N[C@@H](CCCCN)C(=O)N[C@@H](Cc1c[nH]c2ccccc12)C(=O)N[C@@H](CCCCN)C(=O)N[C@@H](CCCCN)C(=O)N[C@@H](CCC(N)=O)C(=O)N[C@@H](CC(C)C)C(=O)N[C@@H](CCCNC(=N)N)C(=O)N[C@@H](CCCNC(=N)N)C(=O)N1CCC[C@H]1C(=O)N[C@@H](CO)C(=O)N[C@@H](CC(=O)O)C(=O)N[C@@H](CCCNC(=N)N)C(=O)N[C@@H](CCC(=O)O)C(=O)N[C@@H](CC(C)C)C(=O)N[C@@H](CO)C(=O)N[C@@H](CCC(=O)O)C(=O)O [PTD-p65-P1] (H-DRQIKIWFQNNRRMKWKKQLRRPSDRELSE-OH) | enhanced TNF-induced cytotoxicity |  | effect on cisplatin-induced cytotoxicity (MTT) ([1]; cisplatin 72 hr (FIG. 7D bottom panel)): potentiated; effect on doxorubicin-induced cytotoxicity (MTT) ([1]; doxorubicin 72 hr (FIG. 7D top panel)): potentiated
10 | p65-P4: Peptide in which five amino acid residues were deleted from the C-terminus (QLRRPSD; CHAIN p65-P4, mutated peptide derived from the p65 subunit of NF-kB) |  | inactive | 
